This test deals with T1, tyrosine kinase (KDR) (Homo sapiens, UniProt P35968).
T1 construct: purchased CARNABIO SCIENCE Co. Ltd. JAPAN
Briefly: Evaluation test of inhibitory effect of tyrosine kinase (KDR) activity, ELISA method (CARNABIO SCIENCE kit). The class given is biochemical. Particulars: 4 mg/L test compound, 1 μM ATP, substrate 250 nM, 1 hour at room temperature, absorbance 450 nm; read-out: tyrosine kinase inhibition rates (% inhibition). The protocol:
In order to find usefulness of the present compounds, a test of inhibitory effect of tyrosine kinase (KDR) activity was conducted on the present compounds using an evaluation system for kinase (KDR) inhibitory activity by way of the ELISA method which is the method for evaluating neovascularization inhibition effect of drugs, and the neovascularization inhibition effects were evaluated.
Evaluation Test of Inhibitory Effect of Tyrosine Kinase (KDR) Activity
As one of the widely-used methods of evaluating inhibitory effect of tyrosine kinase (KDR) activity by drugs, the ELISA method has been reported. The inhibitory effect of tyrosine kinase (KDR) activity of each of the present compounds was evaluated using the commercially available kit (purchased from CARNABIO SCIENCE Co. Ltd. JAPAN) for evaluating inhibitory effect of tyrosine kinase (KDR) activity.
(Preparation of Test Compound Solution)
Each test compound (2 mg) were dissolved in dimethyl sulfoxide (hereinafter abbreviated as DMSO), and the 2 mg/ml stock solution were prepared. Each obtained solution was diluted with 8 μL of DMSO. Each solution (0.4 mg/ml compound) was diluted 25 times with assay buffer to give the test compound solution. For the vehicle, 4% DMSO-Assay Buffer solution was prepared.
(Preparation of ATP/Substrate Solution)
Thaw commercially available ATP/Substrate (purchased from CARNABIO SCIENCE Co. Ltd. JAPAN), then 250 μL of it was added to 1 mL of assay buffer to give ATP/substrate solution. ATP/substrate solution was kept on ice before use.
(Preparation of Enzyme Solution)
7 μL of commercially available tyrosine kinase (purchased from CARNABIO SCIENCE Co. Ltd. JAPAN) was added to 2.793 mL of assay buffer to give enzyme solution. Enzyme solution was kept on ice before use.
(Preparation of Blocking Buffer)
BSA (Sigma, A-7030) was dissolved with wash buffer (50 mM Tris-HCl (pH7.5), 150 mM NaCl, 0.2% Tween-20) to give x100 BSA solution, and the solution was kept at −80° C. Thaw 400 μL of x100 BSA solution before use, it was added to 40 mL of wash buffer to give blocking buffer.
(Preparation of Detection Mixture)
40 μL of commercially available HRP-conjugated antibody (purchased from CARNABIO SCIENCE Co. Ltd. JAPAN) was added to 12 mL of blocking buffer to give detection mixture.
(Method of Test and Method of Measurement)
1) Add 10 μL of each test compound solution, 10 μL of ATP/substrate solution and 20 μL of enzyme solution to each well of ELISA plate (streptavidin-coated 96-well plate, PerkinElmer, 4009-0010). Incubate for 1 hour at room temperature (4 mg/L test compound solution, 15 mM Tris-HCl (pH7.5), 0.01% Tween 20, 2 mM DTT, concentration of substrate: 250 nM, 1 μM ATP, 5 mM Mg). For the vehicle, the above mentioned 4% DMSO-assay buffer solution was added instead of test compound solution.
2) Aspirate each well and wash with wash buffer, repeating the process three times for four washes.
3) Add 200 μL of blocking buffer to each well and cover the plate and incubate for 30 minutes.
4) Aspirate each well, add 100 μL of detection mixture to each well and incubate the plate for 30 minutes.
5) Aspirate each well and wash with wash buffer 4 times.
6) Add 100 μL of color reagent to each well. Incubate for 5 minutes and then add 0.1 M H2SO4 to each well.
7) Measure the absorbance of each well, using a plate reader set to […].
(Calculation of Kinase Inhibition Rate)
Rate of the reaction positive control well with kinase was considered 0% inhibition, rate of the reaction negative control well with assay buffer instead of kinase was considered 100% inhibition, and so the inhibition rates of test compound well were calculated based on the absorbance of them.
A: Absorbance of the reaction positive control well
B: Absorbance of the reaction negative control well
C: Absorbance of the test compound well
tyrosine kinase inhibition rates (%)=100 [1-(C-A)/(B-A)]

Counter-ions that a name gives are not always drawn.

T1 sequence (P35968 790-1356 limits assumed): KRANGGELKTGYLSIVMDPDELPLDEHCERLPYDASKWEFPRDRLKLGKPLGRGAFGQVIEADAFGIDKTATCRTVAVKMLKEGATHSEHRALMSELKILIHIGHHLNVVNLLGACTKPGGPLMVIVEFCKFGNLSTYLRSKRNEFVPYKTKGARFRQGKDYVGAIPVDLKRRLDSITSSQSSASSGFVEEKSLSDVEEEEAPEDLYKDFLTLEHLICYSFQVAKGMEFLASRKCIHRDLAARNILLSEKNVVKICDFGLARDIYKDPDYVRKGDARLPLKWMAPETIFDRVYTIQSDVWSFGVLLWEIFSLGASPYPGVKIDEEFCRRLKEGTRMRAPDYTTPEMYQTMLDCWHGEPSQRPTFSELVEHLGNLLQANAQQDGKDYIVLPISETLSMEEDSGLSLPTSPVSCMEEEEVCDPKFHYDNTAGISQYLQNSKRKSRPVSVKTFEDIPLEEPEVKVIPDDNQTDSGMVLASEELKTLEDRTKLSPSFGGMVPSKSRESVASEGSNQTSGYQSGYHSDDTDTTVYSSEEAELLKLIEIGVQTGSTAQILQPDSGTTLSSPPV

Broadly, the inhibition is the drop in the measured response relative to a control, in per cent. For `c1ccc(Nc2nnc(-c3ccccc3OCc3ccnc4ccccc34)o2)cc1` [Compound 1-4, N-Phenyl-5-(2-(quinolin-4-yl)methoxyphenyl)-1,3,4-oxadiazol-2-amine], the inhibition at 4 µg/mL stood at 75%.

Regarding `FC(F)(F)c1ccc(Nc2nnc(-c3ccccc3SCc3ccncc3)s2)cc1` [Compound 1-38, 5-(2-(Pyridin-4-yl)methylthiophenyl)-N-(4-trifluoromethylphenyl)-1,3,4-thiadiazole-2-amine], the inhibition at 4 µg/mL is 53%.

Take `CC(=O)Nc1cc(CSc2ncccc2-c2nnc(Nc3ccc(Cl)cc3)o2)ccn1` [Compound 1-17, 5-(2-(2-Acetamidopyridin-4-yl)methylthiopyridin-3-yl)-N-(4-chlorophenyl)-1,3,4-oxadiazol-2-amine]: the inhibition at 4 µg/mL worked out at 94%.

On to `CNC(=O)c1cc(CSc2ncccc2-c2nnc(Nc3cccc(C(F)(F)F)c3)o2)ccn1` [Compound 1-21, 5-(2-(2-Methylaminocarbonylpyridin-4-yl)methylthiopyridin-3-yl)-N-(3-trifluoromethylphenyl)-1,3,4-oxadiazol-2-amine], for which the inhibition at 4 µg/mL is 93%.

For the compound `Nc1cc(CSc2ncccc2-c2nnc(Nc3ccc(Cl)cc3)o2)ccn1` [Compound 1-91, 5-(2-(2-Aminopyridin-4-yl)methylthiopyridin-3-yl)-N-(4-chlorophenyl)-1,3,4-oxadiazol-2-amine hydrochloride], the inhibition at 4 µg/mL turned out to be 86%.

With `c1ccc(Nc2nnc(-c3ccccc3SCc3ccnc4ccccc34)o2)cc1` [Compound 1-40, N-Phenyl-5-(2-(quinolin-4-yl)methylthiophenyl)-1,3,4-oxadiazol-2-amine], the inhibition at 4 µg/mL came out at 88%.

`FC(F)(F)c1cccc(Nc2nnc(-c3ccccc3OCc3ccncc3)o2)c1` [Compound 1-3, 5-(2-(Pyridin-4-yl)methoxyphenyl)-N-(3-trifluoromethylphenyl)-1,3,4-oxadiazol-2-amine]: the inhibition at 4 µg/mL amounted to 80%.

Regarding `CC(C)(C)OC(=O)Nc1cc(CSc2ncccc2-c2nnc(Nc3ccccc3)o2)ccn1` [Compound 1-7, 5-(2-(2-t-Butoxycarbonylaminopyridin-4-yl)methylthiopyridin-3-yl)-N-phenyl-1,3,4-oxadiazol-2-amine], the inhibition at 4 µg/mL worked out at 60%.

On to `c1ccc(Nc2nnc(-c3ccccc3SCc3ccncc3)s2)cc1` [Compound 1-35, N-Phenyl-5-(2-(pyridin-4-yl)methylthiophenyl)-1,3,4-thiadiazol-2-amine], for which the inhibition at 4 µg/mL is 58%.

Turning to `CC(=O)Nc1cc(CSc2ncccc2-c2nnc(Nc3cccc(C(F)(F)F)c3)o2)ccn1` [Compound 1-18, 5-(2-(2-Acetamidopyridin-4-yl)methylthiopyridin-3-yl)-N-(3-trifluoromethylphenyl)-1,3,4-oxadiazol-2-amine], the inhibition at 4 µg/mL turned out to be 99%.

`Clc1ccc(Nc2nnc(-c3ccccc3SCc3ccncc3)o2)cc1` [Compound 1-41, N-(4-Chlorophenyl)-5-(2-(pyridin-4-yl)methylthiophenyl)-1,3,4-oxadiazol-2-amine]: the inhibition at 4 µg/mL stood at 82%.

Consider `c1ccc(Nc2nnc(-c3cccnc3SCc3ccncc3)o2)cc1` [Compound 1-10, N-Phenyl-5-(2-(pyridin-4-yl)methylthiopyridin-3-yl)-1,3,4-oxadiazol-2-amine], for which the inhibition at 4 µg/mL was 76%.

Turning to `CC(=O)Nc1cc(CSc2ncccc2-c2nnc(Nc3ccccc3)o2)ccn1` [Compound 1-16, 5-(2-(2-Acetamidopyridin-4-yl)methylthiopyridin-3-yl)-N-phenyl-1,3,4-oxadiazol-2-amine], the inhibition at 4 µg/mL was found to be 95%.

For the compound `CC(C)(C)c1ccc(Nc2nnc(-c3ccccc3SCc3ccncc3)o2)cc1` [Compound 1-34, N-(4-t-Butylphenyl)-5-(2-(pyridin-4-yl)methylthiophenyl)-1,3,4-oxadiazol-2-amine], the inhibition at 4 µg/mL was determined as 86%.

Turning to `FC(F)(F)c1cccc(Nc2nnc(-c3ccccc3SCc3ccncc3)o2)c1` [Compound 1-33, 5-(2-(Pyridin-4-yl)methylthiophenyl)-N-(3-trifluoromethylphenyl)-1,3,4-oxadiazol-2-amine], the inhibition at 4 µg/mL came to 95%.

Turning to `CC(=O)Nc1cc(CSc2ccccc2-c2nnc(Nc3cccc(C(F)(F)F)c3)o2)ccn1` [Compound 1-46, 5-(2-(2-Acetamidopyridin-4-yl)methylthiophenyl)-N-(3-trifluoromethylphenyl)-1,3,4-oxadiazol-2-amine], the inhibition at 4 µg/mL stood at 98%.

Consider `c1ccc(Nc2nnc(-c3cccnc3SCc3ccnc4ccccc34)o2)cc1` [Compound 1-13, N-Phenyl-5-(2-(quinolin-4-yl)methylthiopyridin-3-yl)-1,3,4-oxadiazol-2-amine], for which the inhibition at 4 µg/mL was 72%.

For the compound `Clc1cccc(Nc2nnc(-c3ccccc3SCc3ccncc3)s2)c1` [Compound 1-37, N-(3-Chlorophenyl)-5-(2-(pyridin-4-yl)methylthiophenyl)-1,3,4-thiadiazol-2-amine], the inhibition at 4 µg/mL was found to be 84%.

In the case of `CC(=O)Nc1cc(CSc2ccccc2-c2nnc(Nc3ccc(Cl)cc3)o2)ccn1` [Compound 1-45], the inhibition at 4 µg/mL came to 91%.

With `c1ccc(Nc2nnc(-c3ccccc3SCc3ccncc3)o2)cc1` [Compound 1-32, N-Phenyl-5-(2-(pyridin-4-yl)methylthiophenyl)-1,3,4-oxadiazol-2-amine], the inhibition at 4 µg/mL was found to be 55%.

Consider `Nc1nccc(CSc2ccccc2-c2nnc(Nc3ccccc3)o2)n1` [Compound 1-47, 5-(2-(2-Aminopyrimidin-4-yl)methylthiophenyl)-N-phenyl-1,3,4-oxadiazol-2-amine], for which the inhibition at 4 µg/mL was determined as 75%.

With `CC(C)(C)c1ccc(Nc2nnc(-c3ccccc3SCc3ccncc3)s2)cc1` [Compound 1-39, N-(4-t-Butylphenyl)-5-(2-(pyridin-4-yl)methylthiophenyl)-1,3,4-thiadiazol-2-amine], the inhibition at 4 µg/mL amounted to 43%.

For the compound `Clc1ccc(Nc2nnc(-c3cccnc3SCc3ccnc4ccccc34)o2)cc1` [Compound 1-14, N-(4-Chlorophenyl)-5-(2-(quinolin-4-yl)methylthiopyridin-3-yl)-1,3,4-oxadiazol-2-amine], the inhibition at 4 µg/mL worked out at 90%.

In the case of `Nc1cc(CSc2ncccc2-c2nnc(Nc3cccc(C(F)(F)F)c3)o2)ccn1` [Compound 1-92, 5-(2-(2-Aminopyridin-4-yl)methylthiopyridin-3-yl)-N-(3-trifluoromethylphenyl)-1,3,4-oxadiazol-2-amine hydrochloride], the inhibition at 4 µg/mL worked out at 98%.

As for `CNC(=O)c1cc(CSc2ncccc2-c2nnc(Nc3ccc(Cl)cc3)o2)ccn1` [Compound 1-20, N-(4-Chlorophenyl)-5-(2-(2-methylaminocarbonylpyridin-4-yl)methylthiopyridin-3-yl)-1,3,4-oxadiazol-2-amine], the inhibition at 4 µg/mL stood at 86%.

With `Clc1ccc(Nc2nnc(-c3ccccc3SCc3ccncc3)s2)cc1` [Compound 1-36, N-(4-Chlorophenyl)-5-(2-(pyridin-4-yl)methylthiophenyl)-1,3,4-thiadiazol-2-amine], the inhibition at 4 µg/mL came out at 68%.

On to `c1ccc(Nc2nnc(-c3ccccc3OCc3ccncc3)o2)cc1` [Compound 1-1, N-Phenyl-5-(2-(pyridin-4-yl)methoxyphenyl)-1,3,4-oxadiazol-2-amine], for which the inhibition at 4 µg/mL is 55%.

Consider `CC(=O)Nc1cc(COc2ccccc2-c2nnc(Nc3ccccc3)o2)ccn1` [Compound 1-6, 5-(2-(2-Acetamidopyridin-4-yl)methoxyphenyl)-N-phenyl-1,3,4-oxadiazol-2-amine], for which the inhibition at 4 µg/mL turned out to be 65%.

(Values after patent US8063034B2, “Oxadiazole derivatives and thiadiazole derivatives having neovascularization inhibitory activity” (Santen Pharmaceutical Co., Ltd., priority 2007, dated 2011).)
